Data taken from PubChem BioAssay AID330 (DTP/NCI, 2004).
Where “and” joins values, the source holds several entries; their conditions need not be identical. Identical values can stand only once. Toxic doses and inconclusive results are not listed.

System: P388 leukemia ip, CD2F1 mice, survival T/C
Test: NCI In Vivo Anticancer Drug Screen. Data for tumor model P388 Leukemia (intraperitoneal) in CD2F1 (CDF1) mice
Conditions: endpoint: median survival time, higher = longer survival
How it was run: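 Mice carrying the transplanted tumor received test compound or vehicle. Survival was recorded in each group, and the value is the treated-group measurement divided by that of the vehicle-treated control group.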

[1] = dose: 6.25 mg/kg/injection, schedule: Q01DX005 (ip), vehicle: saline with Tween-80
[2] = dose: 12.5 mg/kg/injection, schedule: Q01DX005 (ip), vehicle: saline with Tween-80
[3] = dose: 50.0 mg/kg/injection, schedule: Q01DX005 (ip), vehicle: Klucel (hydroxypropylcellulose) (HPC)
[4] = dose: 100.0 mg/kg/injection, schedule: Q01DX005 (ip), vehicle: Klucel (hydroxypropylcellulose) (HPC)
[5] = dose: 200.0 mg/kg/injection, schedule: Q01DX005 (ip), vehicle: Klucel (hydroxypropylcellulose) (HPC)

**Q.** With `O=C(Nc1ccccc1)c1c(O)[nH]c(=S)[nH]c1=O` as the compound, how does the T/C (dose: 3.13 mg/kg/injection, schedule: Q01DX005 (ip), vehicle: saline with Tween-80) read?
**A.** Its T/C is 110 % of control.

**Q.** And the T/C [1]?
**A.** Its T/C is 116 % of control.

**Q.** What about the T/C [2] of the same compound?
**A.** Its T/C is 120 % of control.

**Q.** What about the T/C (dose: 50.0 mg/kg/injection, schedule: Q01DX005 (ip), vehicle: saline with Tween-80) of the same compound?
**A.** The T/C was 162 % of control and 201 % of control.

**Q.** And the T/C (dose: 75.0 mg/kg/injection, schedule: Q01DX009 (ip), vehicle: saline with Tween-80)?
**A.** Its T/C is 210 % of control and 237 % of control and 240 % of control.

**Q.** What about the T/C (dose: 175.0 mg/kg/injection, schedule: Q01DX009 (ip), vehicle: saline with Tween-80) of the same compound?
**A.** The T/C was 283 % of control.

**Q.** With `C=CCN(CC=C)P(=O)(N(CC=C)CC=C)N(CC=C)CC=C` as the compound, how does the T/C [3] read?
**A.** Its T/C is 99 % of control.

**Q.** What about the T/C [4] of the same compound?
**A.** The T/C was 99 % of control.

**Q.** How did the T/C (dose: 60.0 mg/kg/injection, schedule: Q01DX005 (ip), vehicle: saline) turn out when `CC(=O)NCN(C)[N+](=O)[O-]` was run?
**A.** The T/C was 115 % of control.

**Q.** What about the T/C (dose: 120.0 mg/kg/injection, schedule: Q01DX005 (ip), vehicle: saline) of the same compound?
**A.** The T/C was 97 % of control.

**Q.** And the T/C (dose: 240.0 mg/kg/injection, schedule: Q01DX005 (ip), vehicle: saline)?
**A.** The T/C was 108 % of control.

**Q.** How did the T/C (dose: 60.0 mg/kg/injection, schedule: Q01DX005 (ip), vehicle: saline with Tween-80) turn out when `O=S1(=O)C(=C(c2ccccc2)c2ccccc2)S(=O)(=O)c2ccccc21` was run?
**A.** The T/C was 104 % of control.

**Q.** What about the T/C (dose: 120.0 mg/kg/injection, schedule: Q01DX005 (ip), vehicle: saline with Tween-80) of the same compound?
**A.** Its T/C is 96 % of control.

**Q.** What about the T/C (dose: 240.0 mg/kg/injection, schedule: Q01DX005 (ip), vehicle: saline with Tween-80) of the same compound?
**A.** The T/C was 102 % of control.

**Q.** For `CC(C)c1cc(C(C)C)c(S(=O)(=O)N/N=C2\C=CCC(C)(C)C2)c(C(C)C)c1`, which T/C (dose: 50.0 mg/kg/injection, schedule: Q01DX009 (ip), vehicle: DMSO) is on record?
**A.** Its T/C is 87 % of control.

**Q.** What about the T/C (dose: 100.0 mg/kg/injection, schedule: Q01DX009 (ip), vehicle: DMSO) of the same compound?
**A.** The T/C was 89 % of control.

**Q.** And the T/C (dose: 200.0 mg/kg/injection, schedule: Q01DX009 (ip), vehicle: DMSO)?
**A.** The T/C was 97 % of control.

**Q.** For `CCCCNC(=S)S`, which T/C (dose: 100.0 mg/kg/injection, schedule: Q01DX009 (ip), vehicle: saline with Tween-80) is on record?
**A.** The T/C was 109 % of control.

**Q.** And the T/C (dose: 200.0 mg/kg/injection, schedule: Q01DX009 (ip), vehicle: saline with Tween-80)?
**A.** Its T/C is 109 % of control.

**Q.** What about the T/C (dose: 400.0 mg/kg/injection, schedule: Q01DX009 (ip), vehicle: saline with Tween-80) of the same compound?
**A.** The T/C was 104 % of control.

**Q.** What does the source list for `O=C(O)c1ccc2c(c1Sc1ccccc1)C(=O)c1ccccc1C2=O`?
**A.** T/C (dose: 60.0 mg/kg/injection, schedule: Q01DX005 (ip), vehicle: Klucel (hydroxypropylcellulose) (HPC)): 110 % of control; T/C (dose: 120.0 mg/kg/injection, schedule: Q01DX005 (ip), vehicle: Klucel (hydroxypropylcellulose) (HPC)): 107 % of control

**Q.** `CCN(CC)C(=S)n1nc(C)c(N=Nc2cccc(Cl)c2Cl)c1C` was tested. Which T/C [1] did it give?
**A.** Its T/C is 103 % of control.

**Q.** And the T/C [2]?
**A.** The T/C was 97 % of control.

**Q.** And the T/C (dose: 25.0 mg/kg/injection, schedule: Q01DX005 (ip), vehicle: saline with Tween-80)?
**A.** The T/C was 93 % of control.

**Q.** And the T/C (dose: 100.0 mg/kg/injection, schedule: Q01DX005 (ip), vehicle: saline with Tween-80)?
**A.** The T/C was 91 % of control.

**Q.** What about the T/C (dose: 200.0 mg/kg/injection, schedule: Q01DX005 (ip), vehicle: saline with Tween-80) of the same compound?
**A.** Its T/C is 94 % of control.

**Q.** `S=C1SCN(c2ccc(Br)cc2)CN1c1ccc2[nH]c(=S)sc2c1` was tested. Which T/C (dose: 6.25 mg/kg/injection, schedule: Q01DX009 (ip), vehicle: Klucel (hydroxypropylcellulose) (HPC)) did it give?
**A.** The T/C was 106 % of control.

**Q.** What about the T/C (dose: 12.5 mg/kg/injection, schedule: Q01DX009 (ip), vehicle: Klucel (hydroxypropylcellulose) (HPC)) of the same compound?
**A.** The T/C was 113 % of control.

**Q.** What about the T/C (dose: 25.0 mg/kg/injection, schedule: Q01DX009 (ip), vehicle: Klucel (hydroxypropylcellulose) (HPC)) of the same compound?
**A.** Its T/C is 106 % of control.

**Q.** For `CCOc1cc2c(cc1C(C)c1ccc(OC)c(C)c1)OCO2` (centres undefined), which T/C (dose: 12.5 mg/kg/injection, schedule: Q01DX005 (ip), vehicle: Klucel (hydroxypropylcellulose) (HPC)) is on record?
**A.** Its T/C is 92 % of control.

**Q.** And the T/C (dose: 25.0 mg/kg/injection, schedule: Q01DX005 (ip), vehicle: Klucel (hydroxypropylcellulose) (HPC))?
**A.** The T/C was 91 % of control.

**Q.** What about the T/C [3] of the same compound?
**A.** The T/C was 102 % of control and 111 % of control.

**Q.** What about the T/C [4] of the same compound?
**A.** The T/C was 101 % of control and 112 % of control.

**Q.** And the T/C [5]?
**A.** Its T/C is 101 % of control and 114 % of control.

**Q.** Which results are given for `CCCCNC(=O)OCc1ccc(NCCN(CC)CC)c2c(=O)c3ccccc3sc12`?
**A.** T/C (dose: 1.56 mg/kg/injection, schedule: Q01DX005 (ip), vehicle: distilled water + Tween-80): 105 % of control and 97 % of control; T/C (dose: 3.12 mg/kg/injection, schedule: Q01DX005 (ip), vehicle: distilled water + Tween-80): 102 % of control and 112 % of control and 119 % of control; T/C (dose: 6.25 mg/kg/injection, schedule: Q01DX005 (ip), vehicle: distilled water + Tween-80): 101 % of control and 111 % of control

**Q.** Which T/C (dose: 50.0 mg/kg/injection, schedule: Q01DX005 (ip), vehicle: saline) does the source give for `CC1CCP(=O)(c2ccccc2)C1` (centres undefined) here?
**A.** Its T/C is 104 % of control.

**Q.** And the T/C (dose: 100.0 mg/kg/injection, schedule: Q01DX005 (ip), vehicle: saline)?
**A.** The T/C was 105 % of control.

**Q.** What about the T/C (dose: 200.0 mg/kg/injection, schedule: Q01DX005 (ip), vehicle: saline) of the same compound?
**A.** Its T/C is 105 % of control.

**Q.** How did the T/C [3] turn out when `CC(C)CNC1=CC(=S)NC(C)(C)C1` was run?
**A.** Its T/C is 99 % of control.

**Q.** What about the T/C [4] of the same compound?
**A.** The T/C was 101 % of control.

**Q.** And the T/C [5]?
**A.** Its T/C is 94 % of control.
